Assay results taken from ChEMBL document CHEMBL4507311, “Data for DCP probe A-1155463” (2021).

Experiments:
[1] = tested on: eIF-2-alpha kinase GCN2 (Homo sapiens), Q9P2K8 [S808G]; details: Compound concentration 1000.0 nM
[2] = target: Serine/threonine-protein kinase Sgk3 (Homo sapiens) (UniProt Q96BR1); details: Compound concentration 1000.0 nM
[3] = target: Aurora kinase C (Homo sapiens) (UniProt Q9UQB9); details: Compound concentration 1000.0 nM
[4] = target: Mitogen-activated protein kinase kinase kinase 6 (Homo sapiens) (UniProt O95382); details: Compound concentration 1000.0 nM
[5] = target: Myosin-IIIa (Homo sapiens) (UniProt Q8NEV4); details: Compound concentration 1000.0 nM
[6] = target: T1, Muscarinic acetylcholine receptor M2 (Homo sapiens) (UniProt P08172); details: Compound concentration 10.0 uM
T1 sequence (whole entry): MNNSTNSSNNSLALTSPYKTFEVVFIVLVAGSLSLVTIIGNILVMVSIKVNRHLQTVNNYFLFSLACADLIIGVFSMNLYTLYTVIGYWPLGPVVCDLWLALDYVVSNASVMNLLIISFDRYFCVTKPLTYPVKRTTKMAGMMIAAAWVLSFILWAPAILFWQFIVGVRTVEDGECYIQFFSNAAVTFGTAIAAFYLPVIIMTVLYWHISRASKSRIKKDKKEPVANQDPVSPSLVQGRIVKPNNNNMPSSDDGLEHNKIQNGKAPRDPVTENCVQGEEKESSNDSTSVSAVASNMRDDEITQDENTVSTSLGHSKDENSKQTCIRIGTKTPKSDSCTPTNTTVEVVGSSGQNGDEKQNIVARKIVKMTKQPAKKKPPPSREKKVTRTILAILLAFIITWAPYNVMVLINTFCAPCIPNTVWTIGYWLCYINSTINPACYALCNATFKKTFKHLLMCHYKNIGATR

[7] = target: Interferon-induced, double-stranded RNA-activated protein kinase (Homo sapiens) (UniProt P19525); details: Compound concentration 1000.0 nM
[8] = target: Receptor tyrosine-protein kinase erbB-2 (Homo sapiens) (UniProt P04626); details: Compound concentration 1000.0 nM
[9] = target: Serine/threonine-protein kinase 35 (Homo sapiens) (UniProt Q8TDR2); details: Compound concentration 1000.0 nM
[10] = target: Phosphatidylinositol 4-phosphate 5-kinase type-1 alpha (Homo sapiens) (UniProt Q99755); details: Compound concentration 1000.0 nM
[11] = target: Serine/threonine-protein kinase PAK 1 (Homo sapiens) (UniProt Q13153); details: Compound concentration 1000.0 nM
[12] = target: Tyrosine-protein kinase Mer (Homo sapiens) (UniProt Q12866); details: Compound concentration 1000.0 nM
[13] = target: Dual specificity protein kinase CLK3 (Homo sapiens) (UniProt P49761); details: Compound concentration 1000.0 nM
[14] = target: Hormonally up-regulated neu tumor-associated kinase (Homo sapiens) (UniProt P57058); details: Compound concentration 1000.0 nM
[15] = target: Serine/threonine-protein kinase Nek7 (Homo sapiens) (UniProt Q8TDX7); details: Compound concentration 1000.0 nM
RS4-11 = assay: CellTiter-Glo Luminescent Cell Viability Assay (BCL-2 dependent cell line RS4-11); type: functional, cell-based; details: Homo sapiens
[16] = tested on: Phosphatidylinositol 4,5-bisphosphate 3-kinase catalytic subunit alpha isoform (Homo sapiens), P42336 [C420R]; details: Compound concentration 1000.0 nM
[17] = target: Calcium/calmodulin-dependent protein kinase type 1B (Homo sapiens) (UniProt Q6P2M8); details: Compound concentration 1000.0 nM
[18] = target: Calcium/calmodulin-dependent protein kinase kinase 1 (Homo sapiens) (UniProt Q8N5S9); details: Compound concentration 1000.0 nM
[19] = target: Mitogen-activated protein kinase 9 (Homo sapiens) (UniProt P45984); details: Compound concentration 1000.0 nM
[20] = target: Calcium/calmodulin-dependent protein kinase type II subunit delta (Homo sapiens) (UniProt Q13557); details: Compound concentration 1000.0 nM
[21] = target: Serine/threonine-protein kinase 26 (Homo sapiens) (UniProt Q9P289); details: Compound concentration 1000.0 nM
[22] = target: Cyclin-dependent kinase 9 (Homo sapiens) (UniProt P50750); details: Compound concentration 1000.0 nM
[23] = target: Mitogen-activated protein kinase 1 (Homo sapiens) (UniProt P28482); details: Compound concentration 1000.0 nM
[24] = target: Activin receptor type-1B (Homo sapiens) (UniProt P36896); details: Compound concentration 1000.0 nM
[25] = target: Sigma non-opioid intracellular receptor 1 (Homo sapiens, UniProt Q99720); details: Compound concentration 10.0 uM
[26] = target: Calcium/calmodulin-dependent protein kinase type 1 (Homo sapiens) (UniProt Q14012); details: Compound concentration 1000.0 nM
[27] = target: Phosphatidylinositol 5-phosphate 4-kinase type-2 beta (Homo sapiens) (UniProt P78356); details: Compound concentration 1000.0 nM
[28] = target: Calcium/calmodulin-dependent protein kinase type 1G (Homo sapiens) (UniProt Q96NX5); details: Compound concentration 1000.0 nM
[29] = tested on: Phosphatidylinositol 4,5-bisphosphate 3-kinase catalytic subunit alpha isoform (Homo sapiens), P42336 [E542K]; details: Compound concentration 1000.0 nM
[30] = target: Serine/threonine-protein kinase 36 (Homo sapiens) (UniProt Q9NRP7); details: Compound concentration 1000.0 nM
[31] = target: Serine/threonine-protein kinase 32B (Homo sapiens) (UniProt Q9NY57); details: Compound concentration 1000.0 nM
[32] = target: 5-hydroxytryptamine receptor 1E (Homo sapiens) (UniProt P28566); details: Compound concentration 10.0 uM
[33] = target: Receptor-interacting serine/threonine-protein kinase 1 (Homo sapiens) (UniProt Q13546); details: Compound concentration 1000.0 nM
[34] = target: Testis-specific serine/threonine-protein kinase 3 (Homo sapiens) (UniProt Q96PN8); details: Compound concentration 1000.0 nM
[35] = target: Serine/threonine-protein kinase PLK2 (Homo sapiens) (UniProt Q9NYY3); details: Compound concentration 1000.0 nM
[36] = target: Phosphatidylinositol 4-phosphate 3-kinase C2 domain-containing subunit beta (Homo sapiens) (UniProt O00750); details: Compound concentration 1000.0 nM
[37] = tested on: Mast/stem cell growth factor receptor Kit (Homo sapiens), P10721 [L576P]; details: Compound concentration 1000.0 nM

Chain of 5-hydroxytryptamine receptor 1E (Homo sapiens) (P28566 whole entry): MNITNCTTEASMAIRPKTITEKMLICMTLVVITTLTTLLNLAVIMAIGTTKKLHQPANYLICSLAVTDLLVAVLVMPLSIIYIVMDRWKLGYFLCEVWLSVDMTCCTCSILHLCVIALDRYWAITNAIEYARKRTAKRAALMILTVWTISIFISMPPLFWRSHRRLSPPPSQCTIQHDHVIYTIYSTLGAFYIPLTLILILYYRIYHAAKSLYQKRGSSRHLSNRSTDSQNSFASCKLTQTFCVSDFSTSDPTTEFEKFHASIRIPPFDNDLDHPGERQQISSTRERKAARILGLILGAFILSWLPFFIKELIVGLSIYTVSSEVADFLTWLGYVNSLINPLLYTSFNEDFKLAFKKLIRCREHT
Chain of Calcium/calmodulin-dependent protein kinase type II subunit delta (Homo sapiens) (Q13557 whole entry): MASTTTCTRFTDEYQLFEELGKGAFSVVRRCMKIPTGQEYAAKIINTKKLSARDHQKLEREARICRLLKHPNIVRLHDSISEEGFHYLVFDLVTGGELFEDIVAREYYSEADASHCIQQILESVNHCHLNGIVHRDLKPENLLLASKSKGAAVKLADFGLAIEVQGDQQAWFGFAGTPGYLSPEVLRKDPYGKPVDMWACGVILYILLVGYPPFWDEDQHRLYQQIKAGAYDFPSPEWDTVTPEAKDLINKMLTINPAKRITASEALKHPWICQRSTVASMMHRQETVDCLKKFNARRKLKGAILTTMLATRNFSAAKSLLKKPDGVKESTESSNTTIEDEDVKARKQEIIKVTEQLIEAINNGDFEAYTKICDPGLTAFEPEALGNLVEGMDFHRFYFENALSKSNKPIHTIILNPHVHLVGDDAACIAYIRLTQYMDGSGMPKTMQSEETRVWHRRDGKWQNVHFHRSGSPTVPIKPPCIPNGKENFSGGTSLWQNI
Chain of Calcium/calmodulin-dependent protein kinase type 1B (Homo sapiens) (Q6P2M8 whole entry): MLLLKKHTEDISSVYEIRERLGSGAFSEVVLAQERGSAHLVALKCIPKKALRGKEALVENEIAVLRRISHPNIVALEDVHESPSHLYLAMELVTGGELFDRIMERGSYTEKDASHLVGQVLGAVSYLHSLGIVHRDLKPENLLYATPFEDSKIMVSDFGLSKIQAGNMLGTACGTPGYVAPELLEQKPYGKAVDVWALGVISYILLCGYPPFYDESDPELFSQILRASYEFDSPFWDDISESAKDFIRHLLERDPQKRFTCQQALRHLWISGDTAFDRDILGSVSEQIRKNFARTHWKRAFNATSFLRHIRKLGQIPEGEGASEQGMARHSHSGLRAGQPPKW
Chain of Hormonally up-regulated neu tumor-associated kinase (Homo sapiens) (P57058 whole entry): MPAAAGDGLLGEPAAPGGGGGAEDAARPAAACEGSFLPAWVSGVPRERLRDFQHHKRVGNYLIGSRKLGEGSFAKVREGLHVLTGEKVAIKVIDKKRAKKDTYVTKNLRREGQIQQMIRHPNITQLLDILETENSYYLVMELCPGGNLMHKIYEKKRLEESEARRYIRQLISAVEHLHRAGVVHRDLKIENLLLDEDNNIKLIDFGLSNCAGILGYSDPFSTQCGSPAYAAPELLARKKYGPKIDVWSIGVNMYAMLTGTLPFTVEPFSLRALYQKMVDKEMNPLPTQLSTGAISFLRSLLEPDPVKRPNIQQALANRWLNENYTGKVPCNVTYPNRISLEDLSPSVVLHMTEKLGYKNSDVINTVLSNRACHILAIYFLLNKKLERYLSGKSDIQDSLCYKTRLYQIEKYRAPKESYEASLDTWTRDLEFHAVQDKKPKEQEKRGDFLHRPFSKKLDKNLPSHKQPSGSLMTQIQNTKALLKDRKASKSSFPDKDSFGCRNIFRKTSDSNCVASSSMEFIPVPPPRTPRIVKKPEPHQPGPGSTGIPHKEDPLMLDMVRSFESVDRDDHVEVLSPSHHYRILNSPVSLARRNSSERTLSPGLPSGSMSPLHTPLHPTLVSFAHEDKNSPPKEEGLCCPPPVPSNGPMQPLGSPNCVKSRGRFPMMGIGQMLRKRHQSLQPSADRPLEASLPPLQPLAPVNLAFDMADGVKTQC
Chain of Testis-specific serine/threonine-protein kinase 3 (Homo sapiens) (Q96PN8 whole entry): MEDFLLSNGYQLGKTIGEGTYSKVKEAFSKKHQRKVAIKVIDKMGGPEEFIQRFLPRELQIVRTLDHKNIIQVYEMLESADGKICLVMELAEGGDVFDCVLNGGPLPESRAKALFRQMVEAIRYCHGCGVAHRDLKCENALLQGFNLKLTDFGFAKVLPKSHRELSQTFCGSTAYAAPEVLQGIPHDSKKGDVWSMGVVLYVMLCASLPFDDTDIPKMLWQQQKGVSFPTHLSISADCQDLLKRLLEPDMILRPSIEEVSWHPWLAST
Chain of Calcium/calmodulin-dependent protein kinase kinase 1 (Homo sapiens) (Q8N5S9 whole entry, looked up): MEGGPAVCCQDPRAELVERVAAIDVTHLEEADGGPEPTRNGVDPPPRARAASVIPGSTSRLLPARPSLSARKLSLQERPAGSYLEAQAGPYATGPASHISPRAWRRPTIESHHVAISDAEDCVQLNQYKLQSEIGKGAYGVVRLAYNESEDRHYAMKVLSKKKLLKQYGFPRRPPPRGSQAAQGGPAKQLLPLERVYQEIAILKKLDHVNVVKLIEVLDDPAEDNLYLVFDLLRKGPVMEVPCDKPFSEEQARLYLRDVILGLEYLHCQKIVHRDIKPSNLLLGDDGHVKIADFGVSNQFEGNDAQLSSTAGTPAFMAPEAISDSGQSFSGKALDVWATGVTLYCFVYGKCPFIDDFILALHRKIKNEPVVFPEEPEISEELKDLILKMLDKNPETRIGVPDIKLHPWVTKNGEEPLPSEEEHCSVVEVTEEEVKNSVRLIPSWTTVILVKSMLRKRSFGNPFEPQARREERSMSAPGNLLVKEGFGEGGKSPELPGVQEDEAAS
Chain of Serine/threonine-protein kinase Nek7 (Homo sapiens) (Q8TDX7 whole entry, looked up): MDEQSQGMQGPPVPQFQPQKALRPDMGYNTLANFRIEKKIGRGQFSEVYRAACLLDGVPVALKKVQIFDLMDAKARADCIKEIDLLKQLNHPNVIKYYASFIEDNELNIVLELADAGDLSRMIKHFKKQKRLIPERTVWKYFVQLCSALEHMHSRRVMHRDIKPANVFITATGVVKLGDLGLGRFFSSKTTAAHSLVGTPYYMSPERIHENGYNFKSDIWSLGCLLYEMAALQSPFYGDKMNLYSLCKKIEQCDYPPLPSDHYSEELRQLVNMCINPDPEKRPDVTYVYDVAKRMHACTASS
Chain of Serine/threonine-protein kinase 26 (Homo sapiens) (Q9P289 2-416 limits assumed): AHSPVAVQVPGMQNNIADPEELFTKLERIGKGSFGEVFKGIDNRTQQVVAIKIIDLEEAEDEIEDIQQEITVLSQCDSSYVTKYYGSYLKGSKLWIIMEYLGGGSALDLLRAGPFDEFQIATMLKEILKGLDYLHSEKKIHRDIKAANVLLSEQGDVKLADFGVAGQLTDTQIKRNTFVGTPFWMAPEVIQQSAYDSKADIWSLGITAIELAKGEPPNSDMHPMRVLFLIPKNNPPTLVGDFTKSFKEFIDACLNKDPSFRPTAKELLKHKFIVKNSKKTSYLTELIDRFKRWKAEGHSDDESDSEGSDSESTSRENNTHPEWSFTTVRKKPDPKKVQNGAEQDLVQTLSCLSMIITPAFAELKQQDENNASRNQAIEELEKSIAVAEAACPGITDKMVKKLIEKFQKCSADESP
Chain of Tyrosine-protein kinase Mer (Homo sapiens) (Q12866 whole entry): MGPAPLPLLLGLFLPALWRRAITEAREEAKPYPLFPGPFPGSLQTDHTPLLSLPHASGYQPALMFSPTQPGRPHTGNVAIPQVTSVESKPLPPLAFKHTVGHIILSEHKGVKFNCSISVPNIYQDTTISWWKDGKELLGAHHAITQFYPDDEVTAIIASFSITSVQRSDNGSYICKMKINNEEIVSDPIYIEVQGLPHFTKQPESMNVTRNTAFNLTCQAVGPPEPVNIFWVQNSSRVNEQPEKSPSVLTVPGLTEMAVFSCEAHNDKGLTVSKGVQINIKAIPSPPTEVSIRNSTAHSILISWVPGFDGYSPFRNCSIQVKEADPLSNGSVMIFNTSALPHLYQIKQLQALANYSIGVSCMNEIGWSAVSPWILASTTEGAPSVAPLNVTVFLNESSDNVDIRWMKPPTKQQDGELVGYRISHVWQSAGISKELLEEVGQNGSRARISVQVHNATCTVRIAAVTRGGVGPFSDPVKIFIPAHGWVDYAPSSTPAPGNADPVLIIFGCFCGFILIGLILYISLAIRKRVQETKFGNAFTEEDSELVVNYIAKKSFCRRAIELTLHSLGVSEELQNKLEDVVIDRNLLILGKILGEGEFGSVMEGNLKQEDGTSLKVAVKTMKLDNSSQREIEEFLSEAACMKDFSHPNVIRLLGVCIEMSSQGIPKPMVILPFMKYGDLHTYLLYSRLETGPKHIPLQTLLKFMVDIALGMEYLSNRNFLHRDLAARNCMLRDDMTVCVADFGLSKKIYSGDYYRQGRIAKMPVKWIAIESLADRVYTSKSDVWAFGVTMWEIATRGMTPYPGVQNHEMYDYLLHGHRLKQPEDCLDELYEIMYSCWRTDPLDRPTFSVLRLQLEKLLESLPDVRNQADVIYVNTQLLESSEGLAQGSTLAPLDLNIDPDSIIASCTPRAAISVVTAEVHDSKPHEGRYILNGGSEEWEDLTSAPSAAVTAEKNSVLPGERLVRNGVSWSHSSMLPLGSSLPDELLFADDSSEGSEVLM
Chain of Phosphatidylinositol 5-phosphate 4-kinase type-2 beta (Homo sapiens) (P78356 whole entry): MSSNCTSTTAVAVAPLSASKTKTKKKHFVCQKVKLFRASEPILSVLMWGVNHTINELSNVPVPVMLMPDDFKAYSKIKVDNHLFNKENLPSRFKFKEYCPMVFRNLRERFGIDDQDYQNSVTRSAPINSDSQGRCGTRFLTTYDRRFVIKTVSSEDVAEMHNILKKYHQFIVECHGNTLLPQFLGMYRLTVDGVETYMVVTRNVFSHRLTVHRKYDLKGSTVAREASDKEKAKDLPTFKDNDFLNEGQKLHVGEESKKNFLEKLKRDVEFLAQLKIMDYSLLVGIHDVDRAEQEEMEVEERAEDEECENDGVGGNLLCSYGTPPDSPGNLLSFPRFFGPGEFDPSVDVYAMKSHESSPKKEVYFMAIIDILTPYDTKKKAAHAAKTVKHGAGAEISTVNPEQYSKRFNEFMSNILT

Compound: CN(C)CC#Cc1ccc(OCCCc2sc(N3CCc4cccc(C(=O)Nc5nc6ccccc6s5)c4C3)nc2C(=O)O)c(F)c1 [A-1155463]
- residual activity [1]: 83%
- residual activity [2]: 100%
- residual activity [3]: 9%
- residual activity [4]: 82%
- residual activity [5]: 100%
- inhibition [6]: 34.7%
- residual activity [7]: 100%
- residual activity [8]: 100%
- residual activity [9]: 86%
- residual activity [10]: 100%
- residual activity [11]: 98%
- residual activity [12]: 100%
- residual activity [13]: 86%
- residual activity [14]: 56%
- residual activity [15]: 99%
- EC50 (RS4-11): > 10 µM (not active)
- residual activity [16]: 100%
- residual activity [17]: 100%
- residual activity [18]: 87%
- residual activity [19]: 76%
- residual activity [20]: 72%
- residual activity [21]: 80%
- residual activity [22]: 94%
- residual activity [23]: 100%
- residual activity [24]: 100%
- inhibition [25]: 53.3%
- residual activity [26]: 93%
- residual activity [27]: 80%
- residual activity [28]: 94%
- residual activity [29]: 72%
- residual activity [30]: 99%
- residual activity [31]: 95%
- inhibition [32]: -4.32%
- residual activity [33]: 92%
- residual activity [34]: 84%
- residual activity [35]: 94%
- residual activity [36]: 100%
- residual activity [37]: 95%
